Reference: PubChem BioAssay (NCI)
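GI50 = concentration required for 50% inhibition of growth. TGI: total growth inhibition.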

Columns and labels:
Assay in all cases: NCI tumour cell line growth inhibition, 384-well format
T-47D breast = tested on: T-47D breast
MOLT-4 leukemia = tested on: MOLT-4 leukemia
SNB-19 CNS = tested on: SNB-19 CNS
HOP-92 NSCLC = tested on: HOP-92 NSCLC
NCI-H322M lung = tested on: NCI-H322M lung
SK-MEL-5 melanoma = tested on: SK-MEL-5 melanoma
TK-10 renal = tested on: TK-10 renal
SNB-75 CNS = tested on: SNB-75 CNS
SF-295 CNS = tested on: SF-295 CNS
OVCAR-5 ovarian = tested on: OVCAR-5 ovarian
HCC-2998 colon = tested on: HCC-2998 colon
UACC-257 melanoma = tested on: UACC-257 melanoma
OVCAR-4 ovarian = tested on: OVCAR-4 ovarian
MDA-MB-231 breast = tested on: MDA-MB-231 breast
NCI-H226 lung = tested on: NCI-H226 lung
MALME-3M melanoma = tested on: MALME-3M melanoma
PC-3 prostate = tested on: PC-3 prostate
RXF 393 renal = tested on: RXF 393 renal
LOX IMVI melanoma = tested on: LOX IMVI melanoma
KM12 colon = tested on: KM12 colon
A498 renal = tested on: A498 renal
HL-60(TB) leukemia = tested on: HL-60(TB) leukemia
EKVX NSCLC = tested on: EKVX NSCLC
NCI-H460 NSCLC = tested on: NCI-H460 NSCLC
SN12C renal = tested on: SN12C renal
SF-268 CNS = tested on: SF-268 CNS
UACC-62 melanoma = tested on: UACC-62 melanoma
BT-549 breast = tested on: BT-549 breast
SF-539 CNS = tested on: SF-539 CNS
ACHN renal = tested on: ACHN renal
SK-OV-3 ovarian = tested on: SK-OV-3 ovarian
SK-MEL-28 melanoma = tested on: SK-MEL-28 melanoma
HS 578T breast = tested on: HS 578T breast
HT29 colon = tested on: HT29 colon
CAKI-1 renal = tested on: CAKI-1 renal
NCI/ADR-RES ovarian = tested on: NCI/ADR-RES ovarian
MDA-MB-468 breast = tested on: MDA-MB-468 breast
NCI-H522 lung = tested on: NCI-H522 lung
SR leukemia = tested on: SR leukemia
RPMI-8226 leukemia = tested on: RPMI-8226 leukemia
U251 glioblastoma = tested on: U251 glioblastoma
NCI-H23 lung = tested on: NCI-H23 lung
HCT-15 colon = tested on: HCT-15 colon
OVCAR-8 ovarian = tested on: OVCAR-8 ovarian
MDA-MB-435 melanoma = tested on: MDA-MB-435 melanoma
MCF7 breast = tested on: MCF7 breast
DU-145 prostate = tested on: DU-145 prostate
HOP-62 NSCLC = tested on: HOP-62 NSCLC
A549 NSCLC = tested on: A549 NSCLC
OVCAR-3 ovarian = tested on: OVCAR-3 ovarian
IGROV1 ovarian = tested on: IGROV1 ovarian
HCT-116 colon = tested on: HCT-116 colon
M14 melanoma = tested on: M14 melanoma
COLO 205 colon = tested on: COLO 205 colon

Question: How did the GI50 (T-47D breast) turn out when `COc1cccc2[nH]c3c4c(c5c(c3c12)C(=O)N(CN1CCN(C)CC1)C5=O)CCC4` was run?
Answer: 12.3 µM

Question: And the TGI (T-47D breast)?
Answer: 32 µM

Question: What about the GI50 (MOLT-4 leukemia) of the same compound?
Answer: 6.13 µM

Question: And the TGI (MOLT-4 leukemia)?
Answer: 19.1 µM

Question: What about the GI50 (SNB-19 CNS) of the same compound?
Answer: 12.3 µM

Question: What about the TGI (SNB-19 CNS) of the same compound?
Answer: 24.8 µM

Question: And the GI50 (HOP-92 NSCLC)?
Answer: 17.3 µM

Question: And the TGI (HOP-92 NSCLC)?
Answer: 31.3 µM

Question: And the GI50 (NCI-H322M lung)?
Answer: 14.4 µM

Question: What about the TGI (NCI-H322M lung) of the same compound?
Answer: 27.8 µM

Question: And the GI50 (SK-MEL-5 melanoma)?
Answer: 3.44 µM

Question: What about the TGI (SK-MEL-5 melanoma) of the same compound?
Answer: 14.3 µM

Question: And the GI50 (TK-10 renal)?
Answer: 10.7 µM

Question: What about the TGI (TK-10 renal) of the same compound?
Answer: 22.7 µM

Question: And the GI50 (SNB-75 CNS)?
Answer: 13 µM

Question: What about the TGI (SNB-75 CNS) of the same compound?
Answer: 25.9 µM

Question: And the GI50 (SF-295 CNS)?
Answer: 13.9 µM

Question: And the TGI (SF-295 CNS)?
Answer: 27.2 µM

Question: What about the GI50 (OVCAR-5 ovarian) of the same compound?
Answer: 20.7 µM

Question: And the TGI (OVCAR-5 ovarian)?
Answer: 48.7 µM

Question: What about the GI50 (HCC-2998 colon) of the same compound?
Answer: 21 µM

Question: And the TGI (HCC-2998 colon)?
Answer: 66.1 µM

Question: And the GI50 (UACC-257 melanoma)?
Answer: 17.8 µM

Question: What about the TGI (UACC-257 melanoma) of the same compound?
Answer: 33 µM

Question: And the GI50 (OVCAR-4 ovarian)?
Answer: 7.56 µM

Question: What about the TGI (OVCAR-4 ovarian) of the same compound?
Answer: 19.5 µM

Question: And the GI50 (MDA-MB-231 breast)?
Answer: 16.1 µM

Question: What about the TGI (MDA-MB-231 breast) of the same compound?
Answer: 29.9 µM

Question: What about the GI50 (NCI-H226 lung) of the same compound?
Answer: 15.9 µM

Question: And the TGI (NCI-H226 lung)?
Answer: 33.2 µM

Question: And the GI50 (MALME-3M melanoma)?
Answer: 13.5 µM

Question: And the TGI (MALME-3M melanoma)?
Answer: 26.5 µM

Question: And the GI50 (PC-3 prostate)?
Answer: 11.5 µM

Question: What about the TGI (PC-3 prostate) of the same compound?
Answer: 23.8 µM

Question: And the GI50 (RXF 393 renal)?
Answer: 14.2 µM

Question: And the TGI (RXF 393 renal)?
Answer: 27.3 µM

Question: And the GI50 (LOX IMVI melanoma)?
Answer: 13.7 µM

Question: What about the TGI (LOX IMVI melanoma) of the same compound?
Answer: 26.9 µM

Question: And the GI50 (KM12 colon)?
Answer: 15.8 µM

Question: And the TGI (KM12 colon)?
Answer: 34.2 µM

Question: And the GI50 (A498 renal)?
Answer: 9.22 µM

Question: And the TGI (A498 renal)?
Answer: 21.5 µM

Question: And the GI50 (HL-60(TB) leukemia)?
Answer: 10.7 µM

Question: And the TGI (HL-60(TB) leukemia)?
Answer: 22.7 µM

Question: And the GI50 (EKVX NSCLC)?
Answer: 15.4 µM

Question: And the TGI (EKVX NSCLC)?
Answer: 29.1 µM

Question: And the GI50 (NCI-H460 NSCLC)?
Answer: 6.97 µM

Question: What about the TGI (NCI-H460 NSCLC) of the same compound?
Answer: 19.8 µM

Question: And the GI50 (SN12C renal)?
Answer: 12.5 µM

Question: And the TGI (SN12C renal)?
Answer: 40.6 µM

Question: What about the GI50 (SF-268 CNS) of the same compound?
Answer: 15.5 µM

Question: What about the TGI (SF-268 CNS) of the same compound?
Answer: 29.7 µM

Question: And the GI50 (UACC-62 melanoma)?
Answer: 12.5 µM

Question: What about the TGI (UACC-62 melanoma) of the same compound?
Answer: 25.3 µM

Question: And the GI50 (BT-549 breast)?
Answer: 15.8 µM

Question: And the TGI (BT-549 breast)?
Answer: 29.6 µM

Question: And the GI50 (SF-539 CNS)?
Answer: 9.75 µM

Question: What about the TGI (SF-539 CNS) of the same compound?
Answer: 21.8 µM

Question: And the GI50 (ACHN renal)?
Answer: 14.9 µM

Question: What about the TGI (ACHN renal) of the same compound?
Answer: 30.5 µM

Question: What about the GI50 (SK-OV-3 ovarian) of the same compound?
Answer: 11.2 µM

Question: What about the TGI (SK-OV-3 ovarian) of the same compound?
Answer: 23.6 µM

Question: What about the GI50 (SK-MEL-28 melanoma) of the same compound?
Answer: 14.5 µM

Question: What about the TGI (SK-MEL-28 melanoma) of the same compound?
Answer: 28.3 µM

Question: And the GI50 (HS 578T breast)?
Answer: 15 µM

Question: What about the TGI (HS 578T breast) of the same compound?
Answer: 29 µM

Question: What about the GI50 (HT29 colon) of the same compound?
Answer: 13.2 µM

Question: What about the TGI (HT29 colon) of the same compound?
Answer: 27.1 µM

Question: What about the GI50 (CAKI-1 renal) of the same compound?
Answer: 10.9 µM

Question: What about the TGI (CAKI-1 renal) of the same compound?
Answer: 23.2 µM

Question: And the GI50 (NCI/ADR-RES ovarian)?
Answer: 8.24 µM

Question: What about the TGI (NCI/ADR-RES ovarian) of the same compound?
Answer: 21 µM

Question: What about the GI50 (MDA-MB-468 breast) of the same compound?
Answer: 8.27 µM

Question: What about the TGI (MDA-MB-468 breast) of the same compound?
Answer: 21.1 µM

Question: And the GI50 (NCI-H522 lung)?
Answer: 7.53 µM

Question: And the TGI (NCI-H522 lung)?
Answer: 21.5 µM

Question: What about the GI50 (SR leukemia) of the same compound?
Answer: 1.83 µM

Question: And the TGI (SR leukemia)?
Answer: 4.8 µM

Question: And the GI50 (RPMI-8226 leukemia)?
Answer: 13.3 µM

Question: What about the TGI (RPMI-8226 leukemia) of the same compound?
Answer: 26.2 µM

Question: What about the GI50 (U251 glioblastoma) of the same compound?
Answer: 12.1 µM

Question: What about the TGI (U251 glioblastoma) of the same compound?
Answer: 24.6 µM

Question: And the GI50 (NCI-H23 lung)?
Answer: 14 µM

Question: And the TGI (NCI-H23 lung)?
Answer: 27.3 µM

Question: What about the GI50 (HCT-15 colon) of the same compound?
Answer: 11.5 µM

Question: What about the TGI (HCT-15 colon) of the same compound?
Answer: 24.8 µM

Question: What about the GI50 (OVCAR-8 ovarian) of the same compound?
Answer: 9.47 µM

Question: What about the TGI (OVCAR-8 ovarian) of the same compound?
Answer: 23.1 µM

Question: What about the GI50 (MDA-MB-435 melanoma) of the same compound?
Answer: 13.7 µM

Question: What about the TGI (MDA-MB-435 melanoma) of the same compound?
Answer: 29.1 µM

Question: And the GI50 (MCF7 breast)?
Answer: 12.5 µM

Question: And the TGI (MCF7 breast)?
Answer: 26.9 µM

Question: What about the GI50 (DU-145 prostate) of the same compound?
Answer: 14.4 µM

Question: And the TGI (DU-145 prostate)?
Answer: 27.9 µM

Question: What about the GI50 (HOP-62 NSCLC) of the same compound?
Answer: 11.5 µM

Question: What about the TGI (HOP-62 NSCLC) of the same compound?
Answer: 24 µM

Question: What about the GI50 (A549 NSCLC) of the same compound?
Answer: 12.5 µM

Question: And the TGI (A549 NSCLC)?
Answer: 26.3 µM

Question: And the GI50 (OVCAR-3 ovarian)?
Answer: 13.2 µM

Question: What about the TGI (OVCAR-3 ovarian) of the same compound?
Answer: 26.7 µM

Question: And the GI50 (IGROV1 ovarian)?
Answer: 12.5 µM

Question: And the TGI (IGROV1 ovarian)?
Answer: 29.6 µM

Question: What about the GI50 (HCT-116 colon) of the same compound?
Answer: 11.6 µM

Question: And the TGI (HCT-116 colon)?
Answer: 24.4 µM

Question: What about the GI50 (M14 melanoma) of the same compound?
Answer: 14.3 µM

Question: And the TGI (M14 melanoma)?
Answer: 28.7 µM

Question: What about the GI50 (COLO 205 colon) of the same compound?
Answer: 15.4 µM

Question: And the TGI (COLO 205 colon)?
Answer: 48.5 µM
